# Results as given in ChEMBL document CHEMBL1201862, “PubChem BioAssay data set” (2004).
# Calls of active or inactive are those of the source.
# Legend:
# [1] = IGROV1 ovarian cancer cell cytotoxicity, dose response, PAX8 inhibitor project, plate reader, dry powder samples (AID 743043); assay type: functional, cell-based; settings: IGROV-1
# [2] = biological target: Paired box protein Pax-8 (Homo sapiens, UniProt Q06710); assay: inhibitors of PAX8-driven TPO luciferase reporter, dose response, RMG-I cells, cherry-pick (AID 687027); assay type: functional, cell-based;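 also: luciferase reporter driven by Pax8 target thyroperoxidase promoter measured by SteadyGlo luminescence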
# Sequence of Paired box protein Pax-8 (Q06710 whole entry): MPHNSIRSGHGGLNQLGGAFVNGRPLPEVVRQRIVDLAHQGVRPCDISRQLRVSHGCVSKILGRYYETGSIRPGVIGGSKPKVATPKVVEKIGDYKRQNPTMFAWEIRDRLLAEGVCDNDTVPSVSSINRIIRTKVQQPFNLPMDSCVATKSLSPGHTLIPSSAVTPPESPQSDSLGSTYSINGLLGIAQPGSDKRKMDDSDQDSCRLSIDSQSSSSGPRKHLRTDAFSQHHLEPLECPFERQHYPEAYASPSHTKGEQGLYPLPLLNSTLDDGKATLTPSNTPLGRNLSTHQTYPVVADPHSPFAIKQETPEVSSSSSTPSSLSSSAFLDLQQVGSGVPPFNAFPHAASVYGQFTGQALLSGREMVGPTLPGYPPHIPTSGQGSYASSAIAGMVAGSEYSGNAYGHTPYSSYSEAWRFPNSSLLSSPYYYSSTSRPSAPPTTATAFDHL
# [3] = biological target: T1, Low molecular weight phosphotyrosine protein phosphatase (Homo sapiens, UniProt P24666); assay type: functional; settings: read-out: IC50_Mean
# T1 sequence (P24666 whole entry): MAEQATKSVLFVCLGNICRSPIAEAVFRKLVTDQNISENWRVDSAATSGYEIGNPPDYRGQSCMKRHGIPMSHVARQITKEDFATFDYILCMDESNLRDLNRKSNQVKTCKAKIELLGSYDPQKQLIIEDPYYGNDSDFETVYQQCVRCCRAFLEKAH
# [4] = biological target: T1, Low molecular weight phosphotyrosine protein phosphatase; assay type: functional; settings: read-out: IC50_Mean; remark: listed apart in the source
# [5] = NIH:OVCAR-3 ovarian cancer cell cytotoxicity, dose response, PAX8 inhibitor project, plate reader, dry powder samples (AID 743044); assay type: functional, cell-based
# [6] = cytotoxicity in OVCAR8 ovarian cancer cells, dose response, PAX8 project, cell-based, plate reader, dry powder samples (AID 743197); assay type: functional; settings: OVCAR-8
# [7] = biological target: NS3 (Hepatitis C virus, UniProt A3EZJ3); assay: HCV NS3 helicase inhibitor potency, dose response, biochemical, fluorescence polarization, ChemBridge library (AID 743264)
# Sequence of NS3 (A3EZJ3 whole entry, the tested form may be a part): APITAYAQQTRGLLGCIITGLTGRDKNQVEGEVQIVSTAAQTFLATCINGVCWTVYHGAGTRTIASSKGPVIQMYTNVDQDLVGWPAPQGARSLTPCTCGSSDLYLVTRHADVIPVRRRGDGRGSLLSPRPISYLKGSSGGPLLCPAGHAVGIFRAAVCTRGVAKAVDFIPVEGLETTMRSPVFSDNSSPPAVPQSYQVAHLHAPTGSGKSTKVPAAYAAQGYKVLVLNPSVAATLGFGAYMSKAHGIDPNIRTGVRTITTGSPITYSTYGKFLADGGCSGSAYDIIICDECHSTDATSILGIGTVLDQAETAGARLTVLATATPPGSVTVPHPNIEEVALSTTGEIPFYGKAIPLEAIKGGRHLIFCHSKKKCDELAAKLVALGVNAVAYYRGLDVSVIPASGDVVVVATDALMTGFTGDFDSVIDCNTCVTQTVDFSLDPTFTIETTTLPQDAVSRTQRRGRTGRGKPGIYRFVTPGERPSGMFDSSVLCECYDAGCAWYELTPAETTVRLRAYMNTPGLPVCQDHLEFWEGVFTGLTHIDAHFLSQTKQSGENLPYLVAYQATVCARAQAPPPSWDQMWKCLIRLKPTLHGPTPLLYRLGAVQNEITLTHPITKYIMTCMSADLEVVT
# [8] = biological target: Photoreceptor-specific nuclear receptor (Homo sapiens, UniProt Q9Y5X4); assay type: functional, cell-based;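 also: CHO-S cells with Gal4-NCOR and VP16-NR2E3 two-hybrid luciferase reporter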
# Sequence of Photoreceptor-specific nuclear receptor (Q9Y5X4 whole entry, the tested form may be a part): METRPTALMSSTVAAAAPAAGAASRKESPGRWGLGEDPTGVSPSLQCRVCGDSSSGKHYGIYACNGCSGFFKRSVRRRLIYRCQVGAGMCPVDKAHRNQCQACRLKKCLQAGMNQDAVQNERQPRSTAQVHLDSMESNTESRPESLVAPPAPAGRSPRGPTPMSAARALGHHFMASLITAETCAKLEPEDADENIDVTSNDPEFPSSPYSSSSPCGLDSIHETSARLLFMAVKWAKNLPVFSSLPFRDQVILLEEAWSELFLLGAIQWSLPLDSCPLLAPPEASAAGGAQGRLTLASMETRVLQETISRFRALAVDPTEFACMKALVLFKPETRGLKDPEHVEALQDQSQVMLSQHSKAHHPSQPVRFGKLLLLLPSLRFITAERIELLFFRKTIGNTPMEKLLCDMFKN
# [9] = biological target: Disintegrin and metalloproteinase domain-containing protein 17 (Homo sapiens, UniProt P78536); assay: exosite inhibitors of ADAM17, dose response, biochemical (AID 743260)
# Sequence of Disintegrin and metalloproteinase domain-containing protein 17 (P78536 whole entry, the tested form may be a part): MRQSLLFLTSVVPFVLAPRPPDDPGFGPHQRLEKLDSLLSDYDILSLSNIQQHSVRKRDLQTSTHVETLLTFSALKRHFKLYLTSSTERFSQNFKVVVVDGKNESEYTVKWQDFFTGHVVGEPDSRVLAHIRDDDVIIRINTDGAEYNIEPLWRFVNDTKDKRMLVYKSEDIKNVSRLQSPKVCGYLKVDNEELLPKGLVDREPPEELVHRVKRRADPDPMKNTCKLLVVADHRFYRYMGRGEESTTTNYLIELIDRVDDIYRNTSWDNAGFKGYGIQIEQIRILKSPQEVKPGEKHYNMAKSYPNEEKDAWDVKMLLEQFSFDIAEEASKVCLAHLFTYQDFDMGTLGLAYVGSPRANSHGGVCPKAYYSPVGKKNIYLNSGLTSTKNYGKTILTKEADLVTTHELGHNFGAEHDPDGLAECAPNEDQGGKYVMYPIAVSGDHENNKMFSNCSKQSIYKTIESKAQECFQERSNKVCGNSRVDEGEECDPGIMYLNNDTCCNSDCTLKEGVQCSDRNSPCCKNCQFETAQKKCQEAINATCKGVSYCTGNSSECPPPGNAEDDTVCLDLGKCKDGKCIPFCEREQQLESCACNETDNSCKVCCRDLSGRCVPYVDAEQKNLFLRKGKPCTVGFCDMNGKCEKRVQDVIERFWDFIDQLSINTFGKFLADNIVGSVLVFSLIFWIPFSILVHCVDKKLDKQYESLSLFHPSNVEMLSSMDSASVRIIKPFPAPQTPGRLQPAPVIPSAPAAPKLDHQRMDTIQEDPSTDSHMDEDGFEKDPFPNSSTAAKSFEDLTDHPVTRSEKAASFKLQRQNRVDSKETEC
# [10] = P. falciparum Dd2 growth inhibitors, dose response, SYBR Green, dry powder samples, set 9 (AID 1159568); assay type: functional, cell-based
# [11] = YAP1 pathway inhibition via CTGF transcript levels, dose response, cell-based, DLD1 colon cancer, RT-qPCR, cherry-pick (AID 1053122); assay type: functional; settings: Cancer cell lines
# [12] = biological target: Long-chain-fatty-acid--AMP ligase FadD28 (Mycobacterium tuberculosis, UniProt P9WQ59); assay: Fluorescence polarization aasay to screen for inhibitors that compete for the binding of FadD28 to a bisubstrate Measured in Biochemical System Using Plate Reader - 2147-01_Inhibitor_Dose_CherryPick_Activity.; assay type: functional, Mycobacterium tuberculosis H37Rv
# Sequence of Long-chain-fatty-acid--AMP ligase FadD28 (P9WQ59 whole entry): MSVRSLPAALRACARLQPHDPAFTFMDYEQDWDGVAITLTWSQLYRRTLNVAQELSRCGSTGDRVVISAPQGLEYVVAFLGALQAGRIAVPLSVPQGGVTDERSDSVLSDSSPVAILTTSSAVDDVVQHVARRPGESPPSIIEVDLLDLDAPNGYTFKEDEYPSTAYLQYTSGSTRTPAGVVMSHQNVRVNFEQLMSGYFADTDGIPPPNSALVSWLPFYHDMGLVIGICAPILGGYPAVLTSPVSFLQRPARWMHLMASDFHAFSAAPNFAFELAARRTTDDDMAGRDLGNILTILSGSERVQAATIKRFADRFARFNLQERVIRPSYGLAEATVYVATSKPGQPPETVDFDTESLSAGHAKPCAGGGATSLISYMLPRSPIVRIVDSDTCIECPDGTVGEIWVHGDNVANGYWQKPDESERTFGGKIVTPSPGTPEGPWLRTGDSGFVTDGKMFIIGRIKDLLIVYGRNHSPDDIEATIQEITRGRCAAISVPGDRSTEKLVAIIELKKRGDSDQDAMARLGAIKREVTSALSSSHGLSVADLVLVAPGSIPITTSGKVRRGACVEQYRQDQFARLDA
# [13] = biological target: T2, Corticotropin-releasing factor receptor 2/Corticotropin-releasing factor-binding protein (Homo sapiens, UniProt P24387+Q13324); assay: Dose Response confirmation of uHTS hits for small molecule antagonists of the CRF-binding protein and CRF-R2 receptor complex.; assay type: functional; settings: read-out: IC50_Mean
# T2 sequence (Q13324 whole entry): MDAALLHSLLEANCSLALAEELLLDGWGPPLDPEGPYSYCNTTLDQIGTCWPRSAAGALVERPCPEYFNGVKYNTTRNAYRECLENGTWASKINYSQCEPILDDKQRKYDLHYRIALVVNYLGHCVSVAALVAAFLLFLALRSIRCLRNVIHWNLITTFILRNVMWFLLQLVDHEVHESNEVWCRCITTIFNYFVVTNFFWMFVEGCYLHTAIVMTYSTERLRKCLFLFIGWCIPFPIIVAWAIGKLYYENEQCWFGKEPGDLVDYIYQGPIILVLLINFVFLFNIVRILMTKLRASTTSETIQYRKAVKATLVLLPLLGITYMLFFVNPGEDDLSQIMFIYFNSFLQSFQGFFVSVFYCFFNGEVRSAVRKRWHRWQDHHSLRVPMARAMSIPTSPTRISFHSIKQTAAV
# T2 sequence (P24387 whole entry): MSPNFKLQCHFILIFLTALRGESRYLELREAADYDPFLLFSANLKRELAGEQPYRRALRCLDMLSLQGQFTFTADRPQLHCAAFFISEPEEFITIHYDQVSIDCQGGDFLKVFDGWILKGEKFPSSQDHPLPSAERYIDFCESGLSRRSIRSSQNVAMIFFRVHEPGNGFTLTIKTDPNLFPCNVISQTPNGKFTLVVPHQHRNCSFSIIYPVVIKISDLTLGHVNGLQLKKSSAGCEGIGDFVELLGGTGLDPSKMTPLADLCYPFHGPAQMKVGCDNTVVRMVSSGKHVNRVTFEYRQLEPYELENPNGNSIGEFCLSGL
# [14] = biological target: T2, Corticotropin-releasing factor receptor 2/Corticotropin-releasing factor-binding protein; assay: activators of CRF receptor 2 with binding protein – uHTS hits, confirmation (AID 602473); assay type: functional; settings: read-out: EC50_Mean
# [15] = CRF-BP/CRF-R2 complex antagonists, dose response, cell-based, uHTS hits, 384-well (AID 651639); assay type: functional, Homo sapiens; settings: read-out: IC50_Mean
compound,measurement,setting,value
O=C(C[C@@H]1CC[C@@H]2[C@H](COC[C@H](O)CN2Cc2ccc3c(c2)OCO3)O1)Nc1ccc(-c2ccccc2)cc1,AC50,[1],41.8 µM (active)
same,AC50,[2],9.11 µM (active)
Cc1csc2c(=O)sc(NC(=O)c3cccs3)nc12,IC50,[3],8.33 µM (active)
same,IC50,[4],36.9 µM (inactive)
C[C@@H]1CCCCO[C@H](CN(C)S(=O)(=O)c2ccccc2)[C@H](C)CN([C@@H](C)CO)C(=O)c2cc(NS(=O)(=O)c3ccc(Cl)cc3)ccc2O1,AC50,[5],46.7 µM (active)
same,AC50,[2],6.18 µM (active)
same,AC50,[6],> 70 µM (inactive)
CC(=O)N(C)C1=C(Cl)C(=O)c2ccccc2C1=O,IC50,[7],20.4 µM (inactive)
OC[C@@H]1CN(Cc2ccc(-c3ccccc3)cc2)C[C@H](n2cnc3c(Nc4ccccc4)ncnc32)O1,IC50,[8],7.72 µM (active)
C/C(=N\N=C(/N)SC1CC(=O)N(c2ccccc2)C1=O)c1cccs1 (stereo unspecified),IC50,[9],> 69.5 µM (inactive)
C[C@H]1CN([C@@H](C)CO)C(=O)c2cc(C#Cc3ccccc3)cnc2O[C@H]1CN(C)C(=O)c1ccccc1,AC50,[10],1.99 µM (active)
same,AC50,[11],17.8 µM (active)
CCOC(=O)c1ccc(NC(=O)Nc2ccc3c(c2)OCCO3)cc1,AC50,[12],59.3 µM (active)
Cc1cc(C(=O)CN2C(=O)NC(C)(CC(C)C)C2=O)c(C)n1-c1ccc2c(c1)OCO2 (stereo unspecified),IC50,[13],12.8 µM (active)
same,EC50,[14],> 53 µM (inactive)
same,IC50,[15],2.36 µM (active)
